Assays:
Type in all cases: cell-based
[1] = test system: Escherichia coli (E. coli—ATCC #8739); assay: Synergy test, microtiter plate high resolution MIC assay, bacterium; conditions: E. coli 8739, M9GY; for Qa: BIT concentration giving end point (MIC); for Qa (BIT at end point, MIC): alone where Qb = 0
Procedure, shortened: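 Synergy against Escherichia coli ATCC #8739 was assessed in standard microtiter plates with M9GY medium, a minimal salt medium supplemented with 0.2% glucose and 0.1% yeast extract. The inoculum was about 5×10^6 bacteria per mL. MICs for each agent alone and in mixtures were combined into a synergy index, Qa/QA+Qb/QB.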

[2] = test system: Pseudomonas aeruginosa (P. aeruginosa—ATCC #15442); assay: as above; set-up: key to SI (calculated synergy index) / SI (synergy index): SI = Qa/QA + Qb/QB (mixture vs. alone end-point concentrations); conditions: P. aeruginosa 15442, M9GY; for Qa: BIT concentration giving end point (MIC); for Qa (BIT at end point, MIC): alone where Qb = 0
Procedure, shortened: (§1)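 Broth microdilution MICs (PDB for C. albicans and A. niger, 5×10^5 fungi/mL; TSB or M9GY for P. aeruginosa, ~5×10^6 bacteria/mL), combinations across 2–10,000 ppm active.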

[3] = test system: Aspergillus niger (A. niger—ATCC 16404); assay: Synergy test, microtiter plate high resolution MIC assay, mold; set-up: key to SI (calculated synergy index) / SI (synergy index): SI = Qa/QA + Qb/QB (mixture vs. alone end-point concentrations); conditions: A. niger 16404, PDB; for Qa: BIT concentration giving end point (MIC); for Qa (BIT at end point, MIC): alone where Qb = 0
Procedure, shortened: as §1

[4] = test system: Candida albicans (C. albicans—ATCC 10231); assay: Synergy test, microtiter plate high resolution MIC assay, yeast; conditions: C. albicans 10231, PDB; for Qa: BIT concentration giving end point (MIC); for Qa (BIT at end point, MIC): alone where Qb = 0
Procedure, shortened: as §1

[5] = alone or mixed with Imidalozidinyl urea, 48 hours
[6] = alone or mixed with caprylyl glycol, 24 hours
[7] = alone or mixed with diazolidinyl urea, 48 hours
[8] = alone or mixed with glutaraldehyde, 24 hours
[9] = Table 25, BIT with sodium dehydroacetic acid, 24 hours
[10] = Table 26, BIT with sodium benzoate, 24 hours
[11] = synergy index BIT + Imidalozidinyl urea, 48 hours
[12] = synergy index BIT + caprylyl glycol, 24 hours
[13] = synergy index BIT + diazolidinyl urea, 48 hours
[14] = synergy index BIT + glutaraldehyde, 24 hours
[15] = alone or mixed with benzyl alcohol, 48 hours
[16] = Table 24, BIT with Cis-1-(3-chloroallyl)-3,5,7-triaza-1-azoniaadamantane chloride, 24 hours
[17] = synergy index BIT + benzyl alcohol, 48 hours

O=c1[nH]sc2ccccc12 [BIT, 1,2-benzisothiazolin-3-one]
1.00: SI (synergy index) ([1]; Table 24, 48 hours) | SI (synergy index) ([1]; Table 25, 24 hours) | SI (synergy index) ([1]; Table 26, 24 hours) | SI [1, 11] | SI ([1]; synergy index BIT + benzyl alcohol, 24 hours) | SI [1, 12] | SI [1, 13] | SI [1, 14] | SI (calculated synergy index) ([2]; Table 8, 48 hours) | SI (calculated synergy index) ([2]; Table 9, 48 hours) | SI (synergy index) ([2]; Table 21, 48 hours) | SI (synergy index) ([2]; Table 22, 72 hours) | SI (synergy index) ([2]; Table 24, 24 hours) | SI (synergy index) ([2]; Table 25, 24 hours) | SI (synergy index) ([2]; Table 26, 24 hours) | SI (synergy index) ([2]; Table 27, 24 hours) | SI (synergy index) ([2]; Table 28, 48 hours) | SI ([2]; synergy index BIT + 2,2′-dithiobis(N-methylbenzamide), 48 hours) | SI [2, 11] | SI [2, 17] | SI [2, 12] | SI ([2]; synergy index BIT + chlorphenesin, 72 hours) | SI [2, 13] | SI ([2]; synergy index BIT + ethylparaben, 48 hours) | SI ([2]; synergy index BIT + glutaraldehyde, 48 hours) | SI ([2]; synergy index BIT + methylparaben, 48 hours) | SI ([2]; synergy index BIT + phenoxyethanol, 48 hours) | SI (calculated synergy index) ([3]; Table 8, 1 week) | SI (calculated synergy index) ([3]; Table 9, 4 days) | SI (synergy index) ([3]; Table 21, 4 days) | SI (synergy index) ([3]; Table 22, 1 week) | SI (synergy index) ([3]; Table 23, 3 days) | SI (synergy index) ([3]; Table 24, 3 days) | SI (synergy index) ([3]; Table 25, 1 week) | SI (synergy index) ([3]; Table 26, 1 week) | SI (synergy index) ([3]; Table 27, 3 days) | SI (synergy index) ([3]; Table 28, 1 week) | SI ([3]; synergy index BIT + 2,2′-dithiobis(N-methylbenzamide), 3 days) | SI ([3]; synergy index BIT + EDTA, 4 days) | SI ([3]; synergy index BIT + Imidalozidinyl urea, 3 days) | SI ([3]; synergy index BIT + benzyl alcohol, 1 week) | SI ([3]; synergy index BIT + caprylyl glycol, 1 week) | SI ([3]; synergy index BIT + chlorphenesin, 1 week) | SI ([3]; synergy index BIT + diazolidinyl urea, 3 days) | SI ([3]; synergy index BIT + ethylparaben, 3 days) | SI ([3]; synergy index BIT + glutaraldehyde, 3 days) | SI ([3]; synergy index BIT + methylparaben, 4 days) | SI ([3]; synergy index BIT + phenoxyethanol, 3 days) | SI (synergy index) ([4]; Table 24, 24 hours) | SI (synergy index) ([4]; Table 25, 24 hours) | SI (synergy index) ([4]; Table 26, 48 hours) | SI ([4]; synergy index BIT + Imidalozidinyl urea, 24 hours) | SI [4, 17] | SI [4, 12] | SI ([4]; synergy index BIT + diazolidinyl urea, 24 hours) | SI [4, 14]
50 ppm: Qa ([3]; alone or mixed with benzyl alcohol, 1 week) | Qa ([3]; alone or mixed with caprylyl glycol, 1 week) | Qa ([3]; alone or mixed with chlorphenesin, 1 week)
30 ppm: Qa ([3]; alone or mixed with methylparaben, 4 days) | Qa: end-point activity (MIC) of BIT in the mixture (BIT alone, QA, where Qb = 0) ([3]; Table 8, 1 week, B = Benzalkonium chloride) | Qa: end-point activity (MIC) of BIT in the mixture (BIT alone, QA, where Qb = 0) ([3]; Table 9, 4 days, B = Benzethonium chloride) | Qa (BIT at end point, MIC) ([3]; Table 21, BIT with Linoleamidopropyl PG-dimonium chloride phosphate, 4 days) | Qa (BIT at end point, MIC) ([3]; Table 22, BIT with Cocamidopropyl PG-dimonium chloride phosphate, 1 week) | Qa (BIT at end point, MIC) ([3]; Table 24, BIT with Cis-1-(3-chloroallyl)-3,5,7-triaza-1-azoniaadamantane chloride, 3 days) | Qa (BIT at end point, MIC) ([3]; Table 25, BIT with sodium dehydroacetic acid, 1 week) | Qa (BIT at end point, MIC) ([3]; Table 26, BIT with sodium benzoate, 1 week) | Qa (BIT at end point, MIC) ([3]; Table 28, BIT with zinc pyrithione, 1 week) | Qa ([4]; alone or mixed with Imidalozidinyl urea, 24 hours) | Qa [4, 15] | Qa [4, 6] | Qa ([4]; alone or mixed with diazolidinyl urea, 24 hours) | Qa [4, 8] | Qa (BIT at end point, MIC) [4, 9] | Qa (BIT at end point, MIC) ([4]; Table 26, BIT with sodium benzoate, 48 hours)
1.33: SI (synergy index) ([2]; Table 23, 24 hours)
20 ppm: Qa ([3]; alone or mixed with 2,2′-dithiobis(N-methylbenzamide), 3 days) | Qa ([3]; alone or mixed with EDTA, 4 days) | Qa ([3]; alone or mixed with Imidalozidinyl urea, 3 days) | Qa ([3]; alone or mixed with diazolidinyl urea, 3 days) | Qa ([3]; alone or mixed with ethylparaben, 3 days) | Qa ([3]; alone or mixed with glutaraldehyde, 3 days) | Qa ([3]; alone or mixed with phenoxyethanol, 3 days) | Qa (BIT at end point, MIC) ([3]; Table 23, BIT with propylparaben, 3 days) | Qa (BIT at end point, MIC) ([3]; Table 27, BIT with Sodium hydroxymethylglycinate, 3 days) | Qa (BIT at end point, MIC) [4, 16]
7.5 ppm: Qa [1, 5] | Qa ([1]; alone or mixed with benzyl alcohol, 24 hours) | Qa [1, 6] | Qa (BIT at end point, MIC) [1, 9] | Qa (BIT at end point, MIC) [1, 10]
8 ppm: Qa [1, 7]
10 ppm: Qa [1, 8] | Qa (BIT at end point, MIC) ([1]; Table 24, BIT with Cis-1-(3-chloroallyl)-3,5,7-triaza-1-azoniaadamantane chloride, 48 hours)
60 ppm: Qa ([2]; alone or mixed with glutaraldehyde, 48 hours) | Qa (BIT at end point, MIC) [2, 16] | Qa (BIT at end point, MIC) [2, 9] | Qa (BIT at end point, MIC) [2, 10] | Qa (BIT at end point, MIC) ([2]; Table 27, BIT with Sodium hydroxymethylglycinate, 24 hours)
100 ppm: Qa ([2]; alone or mixed with 2,2′-dithiobis(N-methylbenzamide), 48 hours) | Qa [2, 5] | Qa [2, 15] | Qa [2, 6] | Qa ([2]; alone or mixed with chlorphenesin, 72 hours) | Qa [2, 7] | Qa ([2]; alone or mixed with ethylparaben, 48 hours) | Qa ([2]; alone or mixed with methylparaben, 48 hours) | Qa ([2]; alone or mixed with phenoxyethanol, 48 hours) | Qa: end-point activity (MIC) of BIT in the mixture (BIT alone, QA, where Qb = 0) ([2]; Table 8, 48 hours, B = Benzalkonium chloride) | Qa: end-point activity (MIC) of BIT in the mixture (BIT alone, QA, where Qb = 0) ([2]; Table 9, 48 hours, B = Benzethonium chloride) | Qa (BIT at end point, MIC) ([2]; Table 21, BIT with Linoleamidopropyl PG-dimonium chloride phosphate, 48 hours) | Qa (BIT at end point, MIC) ([2]; Table 22, BIT with Cocamidopropyl PG-dimonium chloride phosphate, 72 hours) | Qa (BIT at end point, MIC) ([2]; Table 28, BIT with zinc pyrithione, 48 hours)
80 ppm: Qa (BIT at end point, MIC) ([2]; Table 23, BIT with propylparaben, 24 hours)

— patent publication US7468384B2, “Microbicidal composition” (Rohm and Haas Company, priority 2004, dated 2008)
